Values joined by “and” are separate entries in the source; they are usually repeats but may differ in a detail not shown here. Equal entries are not always repeated.
Tested on: BDF1 mice, Adenocarcinoma 755 s.c., tumor weight T/C
Assay: NCI In Vivo Anticancer Drug Screen. Data for tumor model Adenocarcinoma 755 (subcutaneous) in B6D2F1 (BDF1) mice
Details: endpoint: mean tumor weight, higher = larger tumour
Summary of the method: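 In vivo antitumor screen on a transplantable tumor line. Result equals the measure in compound-treated animals divided by the same measure in vehicle controls.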

[1] = dose: 1.5 mg/kg/injection, schedule: Q01DX011 (ip), vehicle: carboxymethylcellulose (CMC)
[2] = dose: 3.0 mg/kg/injection, schedule: Q01DX011 (ip), vehicle: carboxymethylcellulose (CMC)
[3] = dose: 100.0 mg/kg/injection, schedule: Q01DX011 (ip), vehicle: saline
[4] = dose: 25.0 mg/kg/injection, schedule: Q01DX011 (ip), vehicle: methylcellulose (MC)
[5] = dose: 125.0 mg/kg/injection, schedule: Q01DX011 (ip), vehicle: other
[6] = dose: 12.0 mg/kg/injection, schedule: Q01DX011 (ip), vehicle: carboxymethylcellulose (CMC)

With `Nc1nc(=S)c2ncn(C3OC(CO)C(O)C3O)c2[nH]1` (configuration not stated) the T/C (dose: 0.03 mg/kg/injection, schedule: Q01DX011 (ip), vehicle: carboxymethylcellulose (CMC)) was 43 % of control, the T/C (dose: 0.07 mg/kg/injection, schedule: Q01DX011 (ip), vehicle: carboxymethylcellulose (CMC)) was 90 % of control and the T/C (dose: 0.13 mg/kg/injection, schedule: Q01DX011 (ip), vehicle: carboxymethylcellulose (CMC)) was 81 % of control. The T/C (dose: 0.5 mg/kg/injection, schedule: Q01DX011 (ip), vehicle: carboxymethylcellulose (CMC)) was 29 % of control and 37 % of control, the T/C (dose: 1.0 mg/kg/injection, schedule: Q01DX011 (ip), vehicle: carboxymethylcellulose (CMC)) was 6 % of control and 7 % of control and the T/C [1] was 4 % of control. The T/C (dose: 1.5 mg/kg/injection, schedule: Q01DX011 (ip), vehicle: methylcellulose (MC)) was 2 % of control, the T/C (dose: 2.0 mg/kg/injection, schedule: Q01DX011 (ip), vehicle: carboxymethylcellulose (CMC)) was 4 % of control and the T/C [2] was 3 % of control. For the same compound, the T/C (dose: 3.0 mg/kg/injection, schedule: Q01DX011 (ip), vehicle: methylcellulose (MC)) was 1 % of control.

`C[N+](C)(C)c1ncnc2c1ncn2C1CCCO1` (configuration not stated) was tested, and the T/C (dose: 18.7 mg/kg/injection, schedule: Q01DX011 (ip), vehicle: saline) was 100 % of control, the T/C (dose: 37.5 mg/kg/injection, schedule: Q01DX011 (ip), vehicle: saline) was 5 % of control and the T/C [3] was 2 % of control.

In the case of `NS(=O)(=O)c1ncnc2nc[nH]c12`, the T/C (dose: 3.1 mg/kg/injection, schedule: Q01DX011 (ip), vehicle: methylcellulose (MC)) is reported as 105 % of control, the T/C (dose: 6.2 mg/kg/injection, schedule: Q01DX011 (ip), vehicle: methylcellulose (MC)) is reported as 78 % of control and the T/C (dose: 12.5 mg/kg/injection, schedule: Q01DX011 (ip), vehicle: methylcellulose (MC)) is reported as 15 % of control. For the same compound, the T/C [4] was 3 % of control and 9 % of control.

`CCCCCCSc1ncnc2nc[nH]c12` was tested, and the T/C (dose: 31.0 mg/kg/injection, schedule: Q01DX011 (ip), vehicle: other) was 93 % of control, the T/C (dose: 62.0 mg/kg/injection, schedule: Q01DX011 (ip), vehicle: other) was 35 % of control and the T/C [5] was 2 % of control. The T/C (dose: 250.0 mg/kg/injection, schedule: Q01DX011 (ip), vehicle: other) was 1 % of control, the T/C (dose: 300.0 mg/kg/injection, schedule: Q01DX010 (ip), vehicle: other) was 5 % of control and the T/C (dose: 400.0 mg/kg/injection, schedule: Q01DX010 (ip), vehicle: other) was 3 % of control.

In the case of `CSc1ncc(Br)c(=S)[nH]1`, the T/C (dose: 15.0 mg/kg/injection, schedule: Q01DX011 (ip), vehicle: methylcellulose (MC)) is reported as 74 % of control and the T/C (dose: 31.0 mg/kg/injection, schedule: Q01DX011 (ip), vehicle: methylcellulose (MC)) is reported as 70 % of control.

With `Nc1c(Br)cc2c(c1Br)Cc1cc([N+](=O)[O-])ccc1-2` the T/C [1] was 85 % of control, the T/C [2] was 63 % of control and the T/C (dose: 6.0 mg/kg/injection, schedule: Q01DX011 (ip), vehicle: carboxymethylcellulose (CMC)) was 43 % of control. The T/C (dose: 6.0 mg/kg/injection, schedule: Q01DX011 (ip), vehicle: other) was 94 % of control, the T/C (dose: 6.25 mg/kg/injection, schedule: Q01DX011 (ip), vehicle: saline) was 109 % of control and the T/C [6] was 22 % of control. For the same compound, the T/C (dose: 12.5 mg/kg/injection, schedule: Q01DX011 (ip), vehicle: saline) was 69 % of control, the T/C (dose: 25.0 mg/kg/injection, schedule: Q01DX011 (ip), vehicle: carboxymethylcellulose (CMC)) was 7 % of control and the T/C (dose: 25.0 mg/kg/injection, schedule: Q01DX011 (ip), vehicle: saline) was 82 % of control. For the same compound, the T/C (dose: 27.5 mg/kg/injection, schedule: Q01DX011 (ip), vehicle: saline) was 46 % of control, the T/C (dose: 50.0 mg/kg/injection, schedule: Q01DX011 (ip), vehicle: carboxymethylcellulose (CMC)) was 12 % of control and the T/C (dose: 50.0 mg/kg/injection, schedule: Q01DX011 (ip), vehicle: saline) was 57 % of control. For the same compound, the T/C (dose: 50.0 mg/kg/injection, schedule: Q01DX011 (oral), vehicle: saline) was 90 % of control, the T/C (dose: 55.0 mg/kg/injection, schedule: Q01DX011 (ip), vehicle: saline) was 29 % of control and the T/C (dose: 100.0 mg/kg/injection, schedule: Q01DX011 (ip), vehicle: carboxymethylcellulose (CMC)) was 19 % of control. For the same compound, the T/C [3] was 63 % of control, the T/C (dose: 100.0 mg/kg/injection, schedule: Q01DX011 (oral), vehicle: saline) was 72 % of control and the T/C (dose: 110.0 mg/kg/injection, schedule: Q01DX011 (ip), vehicle: other) was 17 % of control and 30 % of control. The T/C (dose: 110.0 mg/kg/injection, schedule: Q01DX011 (ip), vehicle: saline) was 21 % of control and 38 % of control, the T/C (dose: 200.0 mg/kg/injection, schedule: Q01DX011 (ip), vehicle: carboxymethylcellulose (CMC)) was 8 % of control and the T/C (dose: 200.0 mg/kg/injection, schedule: Q01DX011 (ip), vehicle: saline) was 46 % of control. The T/C (dose: 200.0 mg/kg/injection, schedule: Q01DX011 (oral), vehicle: saline) was 91 % of control, the T/C (dose: 225.0 mg/kg/injection, schedule: Q01DX011 (ip), vehicle: other) was 17 % of control and 32 % of control and the T/C (dose: 400.0 mg/kg/injection, schedule: Q01DX011 (oral), vehicle: saline) was 117 % of control. For the same compound, the T/C (dose: 450.0 mg/kg/injection, schedule: Q01DX011 (ip), vehicle: other) was 6 % of control, the T/C (dose: 800.0 mg/kg/injection, schedule: Q01DX011 (oral), vehicle: saline) was 66 % of control and the T/C (dose: 900.0 mg/kg/injection, schedule: Q01DX011 (ip), vehicle: other) was 15 % of control.

For `CS(=O)(=O)OCCC(=O)N1CCC(CCC2CCN(C(=O)CCOS(C)(=O)=O)CC2)CC1`, the T/C [4] was 79 % of control, the T/C (dose: 75.0 mg/kg/injection, schedule: Q01DX011 (ip), vehicle: methylcellulose (MC)) was 63 % of control and the T/C (dose: 225.0 mg/kg/injection, schedule: Q01DX011 (ip), vehicle: methylcellulose (MC)) was 81 % of control.

In the case of `CCCCNc1cc(=O)[nH]c(N)n1`, the T/C (dose: 55.0 mg/kg/injection, schedule: Q01DX011 (ip), vehicle: methylcellulose (MC)) is reported as 53 % of control.

For `CCCCN(C)N=Nc1ccc(CCC(=O)NN)cc1`, the T/C (dose: 31.0 mg/kg/injection, schedule: Q01DX011 (ip), vehicle: carboxymethylcellulose (CMC)) was 19 % of control.

With `CCCCCCCCCCCC[N+](C)(C)c1ncnc2nc[nH]c12` the T/C [6] was 103 % of control, the T/C (dose: 24.0 mg/kg/injection, schedule: Q01DX011 (ip), vehicle: carboxymethylcellulose (CMC)) was 55 % of control and the T/C (dose: 48.0 mg/kg/injection, schedule: Q01DX011 (ip), vehicle: carboxymethylcellulose (CMC)) was 13 % of control.

`O=C(/C=C/C(=O)c1ccccc1)c1ccccc1` was tested, and the T/C (dose: 65.0 mg/kg/injection, schedule: Q01DX011 (ip), vehicle: other) was 76 % of control, the T/C (dose: 90.0 mg/kg/injection, schedule: Q01DX011 (ip), vehicle: other) was 59 % of control and the T/C [5] was 51 % of control.

In the case of `O=c1[nH]c(=O)n(C2CC(O)C(CO)O2)cc1F` (configuration not stated), the T/C (dose: 13.12 mg/kg/injection, schedule: Q01DX011 (ip), vehicle: carboxymethylcellulose (CMC)) is reported as 124 % of control, the T/C (dose: 15.0 mg/kg/injection, schedule: Q01DX011 (ip), vehicle: carboxymethylcellulose (CMC)) is reported as 72 % of control and the T/C (dose: 19.0 mg/kg/injection, schedule: Q01DX011 (ip), vehicle: other) is reported as 66 % of control. The T/C [4] was 54 % of control, the T/C (dose: 26.25 mg/kg/injection, schedule: Q01DX011 (ip), vehicle: carboxymethylcellulose (CMC)) was 68 % of control and the T/C (dose: 30.0 mg/kg/injection, schedule: Q01DX006 (ip), vehicle: other) was 80 % of control. For the same compound, the T/C (dose: 30.0 mg/kg/injection, schedule: Q01DX011 (ip), vehicle: carboxymethylcellulose (CMC)) was 37 % of control, the T/C (dose: 37.5 mg/kg/injection, schedule: Q01DX011 (ip), vehicle: other) was 28 % of control and the T/C (dose: 50.0 mg/kg/injection, schedule: Q01DX011 (ip), vehicle: methylcellulose (MC)) was 25 % of control. The T/C (dose: 52.5 mg/kg/injection, schedule: Q01DX011 (ip), vehicle: carboxymethylcellulose (CMC)) was 59 % of control, the T/C (dose: 60.0 mg/kg/injection, schedule: Q01DX006 (ip), vehicle: other) was 37 % of control and the T/C (dose: 60.0 mg/kg/injection, schedule: Q01DX011 (ip), vehicle: carboxymethylcellulose (CMC)) was 14 % of control. For the same compound, the T/C (dose: 75.0 mg/kg/injection, schedule: Q01DX011 (ip), vehicle: other) was 3 % of control, the T/C (dose: 100.0 mg/kg/injection, schedule: Q01DX011 (ip), vehicle: methylcellulose (MC)) was 6 % of control and the T/C (dose: 105.0 mg/kg/injection, schedule: Q01DX011 (ip), vehicle: carboxymethylcellulose (CMC)) was 54 % of control. For the same compound, the T/C (dose: 120.0 mg/kg/injection, schedule: Q01DX006 (ip), vehicle: other) was 29 % of control, the T/C (dose: 121.0 mg/kg/injection, schedule: Q01DX011 (ip), vehicle: carboxymethylcellulose (CMC)) was 3 % of control and the T/C (dose: 240.0 mg/kg/injection, schedule: Q01DX006 (ip), vehicle: other) was 6 % of control. The T/C (dose: 480.0 mg/kg/injection, schedule: Q01DX006 (ip), vehicle: other) was 2 % of control.
